# Test results from patent publication US8952192B2, “Phosphorylated and branched dihydroxy-pentane-dione (DPD) analogs as quorum sensing inhibitors in bacteria” (University of Maryland, College Park, priority 2011, dated 2015).
# “Also recorded” adds a separate entry of the source.
# Columns and labels:
# [1] = tested on: lsr expression in E. coli (lsr-lacZ reporter strains); test: QS response (lsr expression): AI-2 dependent β-galactosidase production, Miller assay; format: cell-based, Escherichia coli; settings: for IC50: concentration reducing lsr expression (β-galactosidase production) to 50% in the presence of 20 μM exogenously added synthetic DPD, read-out: IC50 of analog (nM) to inhibit QS in E. coli; for inhibition of AI-2-mediated lsr expression (β-galactosidase), in words: 20 μM AI-2 (DPD) + 20 μM analog
# Description: (§1) The panel of C1-alkyl analogs was screened to identify QS modulators in the enteric bacteria E. coli and S. typhimurium. Transcription of the QS associated lsr operon, by using lsr-lacZ reporter strains (Table 2) which produce β-galactosidase in response to added AI-2 was monitored. In order to first establish if the analogs were agonists or antagonists in the QS circuit, the analogs were incubated with E. coli LW7 pLW11 and S. typhimurium MET715 (FIG. 19a-b) both of which are luxS^−. None of the analogs, except ethyl-DPD behaved as agonists for lsr expression. Previous studies investigating AI-2 antagonism in P. aeruginosa or in S. typhimurium were carried out using chemically synthesized AI-2 added to luxS^− cells. […] The same trends were obtained by adding a 1:1 ratio of enzymatically synthesized AI-2 and DPD analogs to the luxS^− strains E. coli LW7 pLW11 and S. typhimurium MET715 (FIG. 11a-b). None of the tested DPD analogs were bacteriocidal or bacteriostatic as the OD600 values of E. coli ZK126 pLW11 and S. typhimurium MET708 in the presence and absence of the analogs were similar (FIG. 10). Though the QS circuitry of the enteric organisms, E. coli and S. typhimurium are homologous they respond differently to the DPD analogs. The E. coli QS circuitry is susceptible to being silenced by a variety of DPD analogs of different shapes and sizes whereas in S. typhimurium, only a handful of DPD analogs could antagonize the action of AI-2. […] Isobutyl-DPD emerged as an effective and non-species-specific quencher; causing significant lsr expression knockdowns in both E. coli and S. typhimurium.
# (§2) The QS response indicated by lsr gene expression was analyzed in pure culture studies by culturing E. coli LW7 pLW11, E. coli ZK126 pLW11 and S. typhimurium MET708, S. typhimurium MET715 overnight in LB medium supplemented with appropriate antibiotics as stated previously. These cells were then diluted into fresh LB medium (with antibiotics) and grown to an OD600 of 0.8-1.0 at 30° C., 250 rpm. Cells were then collected by centrifugation at 10,000×g for 10 minutes, and resuspended in 10 mM phosphate buffer. AI-2 (20 μM) and the respective analog (20 μM) were added to the E. coli or S. typhimurium suspension for 2 hours at 37° C. AI-2 dependent β-galactosidase production was quantified by the Miller assay.
# (§3) The QS response indicated by lsr gene expression was analyzed in pure culture studies by culturing E. coli LW7 pLW11 and S. typhimurium MET715 overnight at 30° C. in LB medium supplemented with appropriate antibiotics as stated previously. These cells were then diluted into fresh LB medium (with antibiotics) and grown to an OD600 of 0.4-0.8 at 37° C., 250 rpm. Cells were then collected by centrifugation at 10,000×g for 10 min and resuspended in 10 mM phosphate buffer. AI-2 (20 μM) and the respective analog (20 μM) were added to the E. coli or S. typhimurium suspension for 2 h at 37° C. AI-2 dependent β-galactosidase production was quantified by the Miller assay.
# (§4) The QS response indicated by lsr gene expression was analyzed in pure culture studies by culturing E. coli LW7 pLW11, E. coli ZK126 pLW11 and S. typhimurium MET708, S. typhimurium MET715 overnight in LB medium individually supplemented with appropriate antibiotics, as specified above. These cells were diluted into fresh LB medium (with antibiotics) and grown to an OD600 of 0.8-1.0 at 30° C., 250 rpm. Cells were collected by centrifugation at 10,000×g for 10 minutes, and resuspended in 10 mM phosphate buffer. AI-2 (20 μM) and the respective analog (20 μM) were added to the E. coli or S. typhimurium suspension for 2 hours at 37° C. AI-2 dependent β-galactosidase production was quantified by the Miller assay.
# [2] = tested on: lsr expression in S. typhimurium (lsr-lacZ reporter strains); test: as above; format: cell-based, Salmonella typhimurium; settings: for IC50: concentration reducing lsr expression (β-galactosidase production) to 50% in the presence of 20 μM exogenously added synthetic DPD, read-out: IC50 of analog (nM) to inhibit QS in S. typhimurium
# Description: as §1, §2, §3, §4
# V. harveyi = test: DPD analogs and representative bacterial species affected (Table 1); format: cell-based; set-up: key: x: DPD Analogs and representative bacterial species affected
# E. coli = test: as above; format: cell-based; set-up: key: x: DPD Analogs and representative bacterial species affected
# LsrK = molecular target: T1, LsrK (Escherichia coli, UniProt P77432); test: In vitro phosphorylation of analogs by LsrK (TLC, autoradiography); format: biochemical, E. coli; settings: for phosphorylation by E. coli LsrK: incubation with LsrK in vitro for one hour (Example 6)
# T1 construct: made in house; host or cells: E. coli BL21
# Description: LsrK was purified and from E. coli BL21 pET200-LsrK as described before. Phosphorylated analogs were synthesized by incubating 1 μM) LsrK with 40 μM ATP (Roche), […] of [γ-^32P] […] A 5 μL aliquot was then spotted onto a cellulose TLC plate (Selecto Scientific). The plate was developed using 0.8 M LiCl as the solvent, air dried and developed via autoradiography.
# LsrK was purified from E. coli BL21 pET200-LsrK as described before. Phosphorylated analogs were synthesized by incubating (1 μM) LsrK with (40 μM) ATP (Roche), ([…]) of [P^32] […] An aliquot (2.5 μL) was then spotted onto a cellulose TLC plate (Selecto Scientific). The plate was developed using 0.8 M LiCl as the solvent, air dried and developed via autoradiography.
# S. mutans = test: DPD analogs and representative bacterial species affected (Table 1); format: cell-based; set-up: key: x: DPD Analogs and representative bacterial species affected
# [3] = tested on: pyocyanin production in P. aeruginosa PAO1; test: QS response (pyocyanin production); format: cell-based; settings: pure culture P. aeruginosa PAO1, DPD analogs (100 μM)
# Description: Identifying Modulators of P. aeruginosa QS. DPD analogs (100 μM) were screened for activity in P. aeruginosa PAO1 by monitoring pyocyanin production (FIG. 34b and FIG. 38).
# The cells were grown with the analog at 3 mL total volume in 50 mL flasks in LB medium, with continuous shaking. Between 22-24 h, when the cells turned green after pyocyanin secretion, the pigment was extracted. The pyocyanin quantification assay was conducted as described. 2 mL chloroform was added to the 3 mL culture and pipetted up and down. 1 mL of the chloroform was transferred to a separate tube and the pyocyanin was re-extracted into 200 μL of 0.2 M HCl. The absorbance of the solution was measured at OD 520 nm. To calculate the concentration of pyocyanin extracted as μg/mL, the OD at 520 nm was multiplied by 17.07.
# [4] = tested on: lsr expression in E. coli (lsr-lacZ reporter strains); test: QS response (lsr expression): AI-2 dependent β-galactosidase production, Miller assay; format: cell-based, Escherichia coli; settings: E. coli SH3 (lsrK−, luxS−), 20 μM ethyl-DPD
# S. typhimurium MET708 = test: Trispecies synthetic ecosystem (S. typhimurium, V. harveyi, E. coli): β-galactosidase activity; format: cell-based; settings: trispecies co-culture, lacZ activity after 4 hours
# From the text: (§5) To investigate the effect of the DPD analogs in a mixed bacterial environment, a synthetic ecosystem composed of three different bacterial populations was assembled. Specifically, S. typhimurium MET708, V. harveyi BB170 and E. coli W3110 (pCT6), each luxS^+ (Table 2), and each producing their native AI-2 were co-cultured in the same tubes. By design, each species was selected so that a different reporter probe would indicate the specific bacterium's QS response: S. typhimurium (MET708) expresses β-galactosidase; V. harveyi (BB170) elicits bioluminescience; and E. coli (W331) are engineered to synthesize GFP. In this way, their responses can be differentiated and quantified in response to AI-2.
# (§6) The S. typhimurium MET708, V. harveyi BB170 and E. coli W3110 pCT6 were each cultured separately overnight in LM medium supplemented with the appropriate antibiotic. […] The V. harveyi luminescence response was measured after 2.5 hours. The S. typhimurium lacZ (β-galactosidase) activity was measured after 4 hours. The E. coli response was determined after 8 hours, by fixing the cells with 1:1 cold 4% paraformaldehyde and using flow cytometric analysis. Samples were analyzed by flow cytometery (FACS Canto II, BD 394 Biosciences), with 20,000 gated events analyzed per sample.
# V. harveyi BB170 = test: QS response (bioluminescence), trispecies synthetic ecosystem; format: cell-based; settings: LM media
# Description: The effect of isobutyl-DPD or isopropyl-DPD on QS associated bioluminescence production by V. harveyi was recorded by measuring the light production from reporter strain, V. harveyi BB170. The analogs were added at concentrations of (20 μM or 40 μM) to V. harveyi BB170 which was assayed as previously described.
# The S. typhimurium MET708, V. harveyi BB170 and E. coli W3110 pCT6 were each cultured separately overnight in LM medium supplemented with the appropriate antibiotic. V. harveyi BB170, S. typhimurium MET708 and E. coli MDAI-2 were diluted (1:4:8), respectively, into a single 1 ml volume of fresh LM medium without antibiotics. The co-culture was supplemented with either 20 μM or 40 μM analog initially and again after 3 and 5 hours of growth. The V. harveyi luminescence response was measured after 2.5 hours. The S. typhimurium lacZ (β-galactosidase) activity was measured after 4 hours. The E. coli response was determined after 8 hours, by fixing the cells with 1:1 cold 4% paraformaldehyde and using flow cytometric analysis. Samples were analyzed by flow cytometery (FACS Canto II, BD 394 Biosciences), with 20,000 gated events analyzed per sample.
# E. coli W3110 pCT6 = test: Trispecies synthetic ecosystem: AI-2 stimulated GFP expression, flow cytometry; format: cell-based; settings: trispecies co-culture, flow cytometry after 8 hours; 60.7% without analog
# From the text: as §5, §6
# T1 sequence (P77432 whole entry): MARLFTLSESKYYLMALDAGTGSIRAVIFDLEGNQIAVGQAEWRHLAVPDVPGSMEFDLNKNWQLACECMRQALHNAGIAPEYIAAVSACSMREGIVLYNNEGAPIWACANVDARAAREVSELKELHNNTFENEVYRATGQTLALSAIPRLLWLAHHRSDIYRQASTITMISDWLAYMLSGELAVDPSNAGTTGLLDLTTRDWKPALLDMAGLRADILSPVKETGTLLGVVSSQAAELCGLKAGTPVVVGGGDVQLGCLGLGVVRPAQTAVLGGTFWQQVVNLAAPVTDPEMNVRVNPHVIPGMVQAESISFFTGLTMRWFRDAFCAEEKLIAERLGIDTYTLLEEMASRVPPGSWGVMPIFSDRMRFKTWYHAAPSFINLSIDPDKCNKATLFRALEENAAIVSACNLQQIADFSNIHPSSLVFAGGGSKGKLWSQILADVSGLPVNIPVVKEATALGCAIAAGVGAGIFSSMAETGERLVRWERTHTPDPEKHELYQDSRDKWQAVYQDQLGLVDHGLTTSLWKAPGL
smiles,measurement,setting,value
"CCCCC(=O)C(=O)[C@@H](O)CO [Butyl-DPD, butyl-DPD]",IC50,[1],2970 nM
same,effect on native lsr expression (QS response),"[2]; S. typhimurium MET708 (luxS+), cells produce their own AI-2",considerable QS response reduction; also recorded: significantly inhibited signaling
same,IC50,[2],> 40000 nM
same,bacterial species affected: V. harveyi,V. harveyi,x
same,bacterial species affected: E. coli,E. coli,x
"O=C(C(=O)C1CCC1)C(O)CO (centres unmarked) [Cyclobutyl-DPD, Cyclobutyl DPD]","inhibition of AI-2-mediated lsr expression (β-galactosidase), in words",[1]; E. coli LW7 pLW11 (luxS−),inhibit lsr expression
same,phosphorylation by E. coli LsrK,LsrK,significantly phosphorylated
same,bacterial species affected: S. mutans,S. mutans,x
"O=C(C(=O)C1CCCCC1)C(O)CO (centres unmarked) [Cyclohexyl-DPD, cyclohexyl-DPD]","inhibition of AI-2-mediated lsr expression (β-galactosidase), in words",[1]; E. coli LW7 pLW11 (luxS−),attenuated lsr expression in E. coli to a lesser extent
same,"effect on AI-2-mediated lsr expression (β-galactosidase), in words","[2]; S. typhimurium MET715 (luxS−), 20 μM AI-2 (DPD) + 20 μM analog",increased expression
same,phosphorylation by E. coli LsrK,LsrK,weakly phosphorylated
same,phosphorylation by E. coli LsrK,LsrK; listed as cyclohexyl,not phosphorylated
same,bacterial species affected: V. harveyi,V. harveyi,x
same,bacterial species affected: E. coli,E. coli,x
"CCCCCCCC(=O)C(=O)[C@@H](O)CO [Heptyl-DPD, heptyl-DPD]",IC50,[1],15900 nM
same,IC50,[2],> 40000 nM
same,inhibition of pyocyanin production,[3],some inhibition
same,bacterial species affected: E. coli,E. coli,x
CCC(=O)C(=O)[C@@H](O)CO [ethyl-DPD],agonist activity for lsr expression,"[1]; E. coli LW7 pLW11 (luxS−), analog only, no AI-2 added",agonist
same,agonist activity for lsr expression,"[2]; S. typhimurium MET715 (luxS−), analog only, no AI-2 added",agonist
same,bacterial species affected: V. harveyi,V. harveyi,x
same,bacterial species affected: E. coli,E. coli,x
same,lsr transcription in LsrK knockout strain,[4],did not initiate lsr transcription
"O=C(C(=O)C(O)CO)c1ccco1 (centres unmarked) [furanosyl-DPD, Furanyl DPD]","inhibition of AI-2-mediated lsr expression (β-galactosidase), in words",[1]; E. coli LW7 pLW11 (luxS−),minimal
same,bacterial species affected: S. mutans,S. mutans,x
CC(C)C(=O)C(=O)C(O)CO (centres unmarked) [isopropyl-DPD],effect on native lsr expression (QS response),"[1]; E. coli ZK126 pLW11 (luxS+), cells produce their own AI-2",substantial reduction; also recorded: partial antagonist
same,phosphorylation by LsrK,LsrK; incubation with LsrK and excess ATP for 2 hours (Example 1),phosphorylated
same,"reduction of the S. typhimurium response, in words",S. typhimurium MET708,unable to cause any reduction
same,decrease of bioluminescence in V. harveyi,V. harveyi BB170; 20 μM,50%
same,decrease of bioluminescence in V. harveyi,V. harveyi BB170; 40 μM,50%
same,"QS positive (green, GFP) cells of the E. coli population after analog addition",E. coli W3110 pCT6,21.4%
same,bacterial species affected: E. coli,E. coli,x
